Drawing on patent publication US7002022B2, “N-Aryl (thio) anthranilic acid amide derivatives, their preparation and their use as VEGF” (Novartis AG, priority 1998, dated 2006), this text covers melting point and IC50 for 39 compounds.

Usually melting point stands for the temperature of the solid-liquid transition. What is called IC50 is the concentration that inhibits the measured activity by half. A low value points to greater potency in that assay.

Tested on in the first series: not given
Experiment: not given
Settings: not given
In turn, `O=C(Nc1ccccc1)c1ccccc1NCc1ccncc1` [Example 3, 2-[(4-Pyridyl)methyl]amino-N-phenylbenzamide] returned a melting point of 160 to 161 °C.
With `O=C(Nc1ccc(Cl)c(C(F)(F)F)c1)c1ccccc1NCc1ccncc1` [Example 7, 2-[(4-Pyridyl)methyl]amino-N-[4-chloro-3-(trifluoromethyl)phenyl]benzamide], the melting point lay within 162 to 172 °C.
`O=C(Nc1cc(Cl)cc(C(F)(F)F)c1)c1ccccc1NCc1ccncc1` [Example 8, 2-[(4-Pyridyl)methyl]amino-N-[3-chloro-5-(trifluoromethyl)phenyl]benzamide] returned a melting point of 190 to 194 °C.
`O=C(Nc1ccc(F)c(C(F)(F)F)c1)c1ccccc1NCc1ccncc1` [Example 9, 2-[(4-Pyridyl)methyl]amino-N-[4-fluoro-3-(trifluoromethyl)phenyl]benzamide] registered a melting point of 183 to 185 °C.
With `O=C(Nc1cc(F)cc(C(F)(F)F)c1)c1ccccc1NCc1ccncc1` [Example 10, 2-[(4-Pyridyl)methyl]amino-N-[3-fluoro-5-(trifluoromethyl)phenyl]benzamide], the melting point fell in the range of 196 to 197 °C.
Same read-out and setting: next, `COc1cc(NC(=O)c2ccccc2NCc2ccncc2)cc(C(F)(F)F)c1` [Example 13, 2-[(4-Pyridyl)methyl]amino-N-[3-methoxy-5-(trifluoromethyl)phenyl]benzamide]: 134 to 136 °C; `CC(C)(C)c1cccc(NC(=O)c2ccccc2NCc2ccncc2)c1` [Example 15, 2-[(4-Pyridyl)methyl]amino-N-[3-(1,1-dimethylethyl)phenyl]benzamide]: 144 to 147 °C.
In turn, `N#Cc1cccc(NC(=O)c2ccccc2NCc2ccncc2)c1` [Example 16, 2-[(4-Pyridyl)methyl]amino-N-(3-cyanophenyl)benzamide] showed a melting point of 157 to 160 °C.
With `CC(=O)Nc1cccc(NC(=O)c2ccccc2NCc2ccncc2)c1` [Example 18, 2-[(4-Pyridyl)methyl]amino-N-(3-acetylaminophenyl)benzamide], the melting point fell in the range of 157 to 158 °C.
Take `NC(=O)Nc1cccc(NC(=O)c2ccccc2NCc2ccncc2)c1` [Example 19, 2-[(4-Pyridyl)methyl]amino-N-[3-[(aminocarbonyl)amino]phenyl]benzamide]: the melting point was 200 to 202 °C.
Turning to `CN(C)c1cccc(NC(=O)c2ccccc2NCc2ccncc2)c1` [Example 20, 2-[(4-Pyridyl)methyl]amino-N-[3-(dimethylamino)phenyl]benzamide], the melting point was 152 to 154 °C.
As for `COc1ccc(NCc2ccncc2)c(C(=O)Nc2cccc(C(F)(F)F)c2)c1` [Example 21, 5-Methoxy-2-[(4-pyridyl)methyl]amino-N-[3-(trifluoromethyl)phenyl]benzamide], the melting point fell in the range of 175 to 178 °C.
Regarding `O=C(Nc1cccc(C(F)(F)F)c1)c1cc(F)c(F)cc1NCc1ccncc1` [Example 23, 4,5-Difluoro-2-[(4-pyridyl)methyl]amino-N-[3-(trifluoromethyl)phenyl]benzamide], the melting point lay in the range of 175 to 178 °C.
Same read-out and setting: next, `CN(C(=O)c1ccccc1NCc1ccncc1)c1cccc(C(F)(F)F)c1` [Example 24, 2-[(4-Pyridyl)methyl]amino-N-methyl-N-[3-(trifluoromethyl)phenyl]benzamide]: 127 to 128 °C; `CC(C)(C)c1ccc(NC(=O)c2ccccc2NCc2ccncc2)cc1` [Example 27, 2-[(4-Pyridyl)methyl]amino-N-[4-(1,1-dimethylethyl)phenyl]benzamide]: 168 to 170 °C; `O=C(Nc1cccc(Cl)c1)c1ccccc1NCc1ccncc1` [Example 28, 2-[(4-Pyridyl)methyl]amino-N-(3-chlorophenyl)benzamide]: 131 to 133 °C.
Still for that read-out and setting: next, `O=C(Nc1cccc(Br)c1)c1ccccc1NCc1ccncc1` [Example 29, 2-[(4-Pyridyl)methyl]amino-N-(3-bromophenyl)benzamide]: 156 to 159 °C; `Cc1cccc(NC(=O)c2ccccc2NCc2ccncc2)c1` [Example 30, 2-[(4-Pyridyl)methyl]amino-N-(3-methylphenyl)benzamide]: 139 to 140 °C.
In turn, `NC(=O)c1cccc(NC(=O)c2ccccc2NCc2ccncc2)c1` [Example 32, 2-[(4-Pyridyl)methyl]amino-N-[3-(aminocarbonyl)phenyl]benzamide] gave a melting point of 195 to 203 °C.
As for `Cc1ccc(NC(=O)c2c(C)cccc2NCc2ccncc2)cc1` [Example 33, 2-[(4-Pyridyl)methyl]amino-N-(4-methylphenyl)-6-methylbenzamide], the melting point lay in the range of 162 to 163 °C.
As for `O=C(Nc1cccc(C(F)(F)F)c1)c1ccccc1NCc1cccnc1` [Example 34, 2-[(3-Pyridyl)methyl]amino-N-[3-(trifluoromethyl)phenyl]benzamide], the melting point is 140 to 142 °C.
`O=C(Nc1cccc(C(F)(F)F)c1)c1ccccc1NCc1ccnc2ccccc12` [Example 35, 2-[(4-Quinolinyl)methyl]amino-N-[3-(trifluoromethyl)phenyl]benzamide] returned a melting point of 191 to 193 °C.
In turn, `O=C(Nc1cccc(C(F)(F)F)c1)c1ccccc1NCc1cccc2ncccc12` [Example 36, 2-[(5-Quinolinyl)methyl]amino-N-[3-(trifluoromethyl)phenyl]benzamide] returned a melting point of 176 to 178 °C.
Compound `O=C(Nc1ccc(Cl)cc1)c1ccccc1NCc1ccnc2ccccc12` [Example 39, 2-[(4-Quinolinyl)methyl]amino-N-(4chlorophenyl)benzamide] yielded a melting point of 178 to 209 °C.
Consider `O=C(Nc1ccc(Cl)cc1)c1ccccc1NCc1ncc[nH]1` [Example 40, 2-[(2-Imidazolyl)methyl]amino-N-(4chlorophenyl)benzamide], for which the melting point was in the range of 181 to 184 °C.
For `O=C(Nc1cccc(C(F)(F)F)c1)c1ccccc1NCCc1cccnc1` [Example 42, 2-[2-(3-Pyridyl)ethyl]amino-N-[3-(trifluoromethyl)phenyl]benzamide], the melting point was 102 to 103 °C.
In turn, `Cc1cccc(NCc2ccncc2)c1C(=O)Nc1ccc(Cl)cc1` [Example 47, 6-methyl-2-[(4-pyridyl)methyl]amino-N-(4-chlorophenyl)benzamide] showed a melting point of 190 °C.
`O=C(Nc1ccc(Cl)cc1)c1c(Cl)cccc1NCc1ccncc1` [Example 48, 6-chloro-2-[(4-pyridyl)methyl]amino-N-(4-chlorophenyl)benzamide]: the melting point was in the range of 183 to 185 °C.
As for `O=C(Nc1ccc2cccc(O)c2c1)c1ccccc1NCc1ccncc1` [Example 54, 2-[(4-pyridyl)methyl]amino-N-(8-hydroxy-2-naphthyl)benzamide], the melting point is 235 °C.
Turning to `O=C(Nc1ccc(Cl)cc1)c1ccc(Cl)cc1NCc1ccncc1` [Example 55, 4-chloro-2-[(4-pyridyl)methyl]amino-N-(4-chlorophenyl)benzamide], the melting point was 186 °C.
As to `Cc1ccc(NCc2ccncc2)c(C(=O)Nc2ccc(Cl)cc2)c1` [Example 56, 5-methyl-2-[(4-pyridyl)methyl]amino-N-(4-chlorophenyl)benzamide], the melting point stood at 127 °C.
Take `O=C(Nc1ccc(Cl)cc1)c1cc(Cl)ccc1NCc1ccncc1` [Example 59, 5-chloro-2-[(4-pyridyl)methyl]amino-N-(4-chlorophenyl)benzamide]: the melting point was in the range of 206 to 207 °C.
In turn, `COc1cc(NC(=O)c2ccccc2NCc2ccncc2)cc2ccccc12` [Example 64, 2-[(4-pyridyl)methyl]amino-N-(4-methoxy-2-naphthyl)benzamide] returned a melting point of 152 to 154 °C.
Compound `O=C(Nc1cc2ccccc2cc1Br)c1ccccc1NCc1ccncc1` [Example 65, 2-[(4-pyridyl)methyl]amino-N-(3-bromo-2-naphthyl)benzamide] gave a melting point of 130 to 132 °C.
`CC(C)OC(=O)c1ccc(NC(=O)c2ccccc2NCc2ccncc2)cc1` [Example 66, 2-[(4-pyridyl)methyl]amino-N-[4-(isopropoxycarbonyl)phenyl]benzamide] had a melting point of 70 °C.
Turning to `CC(C)NC(=O)c1ccc(NC(=O)c2ccccc2NCc2ccncc2)cc1` [Example 68, 2-[(4-pyridyl)methyl]amino-N-[4-(isopropylcarbamoyl)phenyl]benzamide], the melting point came out at 79 °C.
Same read-out and setting: under `Cc1ccc(NC(=O)c2ccccc2NCc2ccncc2)cc1Cl` [Example 69, 2-[(4-pyridyl)methyl]amino-N-(3-chloro-4-methylphenyl)benzamide] stands 143 °C; under `Cc1ccccc1NC(=O)c1ccccc1NCc1ccncc1` [Example 70, 2-[(4-pyridyl)methyl]amino-N-(2-methylphenyl)benzamide], 143 °C.

The target of another series is T1, Flt-1 VEGF-receptor tyrosine kinase (Homo sapiens, UniProt P17948).
T1 construct: 10 ng of the kinase domain of Flt-1
T1 sequence (P17948 827-1158 limits assumed): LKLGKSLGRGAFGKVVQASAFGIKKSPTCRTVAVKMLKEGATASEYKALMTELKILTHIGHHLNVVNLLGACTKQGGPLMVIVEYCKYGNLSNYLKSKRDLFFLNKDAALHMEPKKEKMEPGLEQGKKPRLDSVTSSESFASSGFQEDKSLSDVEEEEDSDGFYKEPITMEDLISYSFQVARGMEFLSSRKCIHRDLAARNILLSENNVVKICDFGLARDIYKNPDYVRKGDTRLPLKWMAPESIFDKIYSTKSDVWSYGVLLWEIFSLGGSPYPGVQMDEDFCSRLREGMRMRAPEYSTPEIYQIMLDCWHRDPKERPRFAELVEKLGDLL
The series is described as follows: Test for activity against Flt-1 VEGF-receptor tyrosine kinase. In kind it is biochemical. Conditions: kinase domain of Flt-1, poly(Glu,Tyr) 4:1, 8 μM [33P]-ATP, 10 minutes at room temperature. As for the experimental part: Test for activity against VEGF-receptor tyrosine kinase. The test is conducted using Flt-1 VEGF-receptor tyrosine kinase. […] The reaction is then terminated by the addition of 10 μl 0.25 M ethylenediaminetetraacetate (EDTA) pH 7. Using a multichannel dispenser (LAB SYSTEMS, USA), an aliquot of 20 μl is applied to a PVDF (=polyvinyl difluoride) Immobilon P membrane (Millipore, USA), through a Millipore microtiter filter manifold and connected to a vacuum. Following complete elimination of the liquid, the membrane is washed 4 times successively in a bath containing 0.5% phosphoric acid (H3PO4) and once with ethanol, incubated for 10 minutes each time while shaking, then mounted in a Hewlett Packard TopCount Manifold and the radioactivity measured after the addition of 10 μl Microscint® (β-scintillation counter liquid).
The test is conducted using Flt-1 VEGF-receptor tyrosine kinase, as described hereinabove.
Turning to `Cc1ccc(NC(=O)c2ccccc2NCc2ccncc2)cc1` [Example 5, 2-[(4-Pyridyl)methyl]amino-N-(4-methylphenyl)benzamide], half-maximal inhibition (IC50) was put at 260 nM. That is a sub-micromolar value.
`O=C(Nc1ccc(Cl)c(C(F)(F)F)c1)c1ccccc1NCc1ccncc1` [Example 7, 2-[(4-Pyridyl)methyl]amino-N-[4-chloro-3-(trifluoromethyl)phenyl]benzamide] came in with an IC50 of 560 nM.
